# From PubChem BioAssay (NCI)
#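 Test compounds were applied to cells in 96-well plates for 48 hours at 5 doses. GI50 = concentration required for 50% inhibition of growth. TGI marks complete inhibition of growth.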
# What was measured:
# Assay in all cases: DTP human tumour cell line panel, 48 h
# [1] = tested on: 786-0 renal
# [2] = tested on: A498 renal
# [3] = tested on: A549 NSCLC
# [4] = tested on: ACHN renal
# [5] = tested on: CAKI-1 renal
# [6] = tested on: CCRF-CEM leukemia
# [7] = tested on: COLO 205 colon
# [8] = tested on: DLD-1 colon
# [9] = tested on: DMS 273 small cell lung
# [10] = tested on: EKVX NSCLC
# [11] = tested on: HCT-116 colon
# [12] = tested on: HCT-15 colon
# [13] = tested on: HL-60(TB) leukemia
# [14] = tested on: HOP-18 NSCLC
# [15] = tested on: HOP-62 NSCLC
# [16] = tested on: HOP-92 NSCLC
# [17] = tested on: HT29 colon
# [18] = tested on: IGROV1 ovarian
# [19] = tested on: K-562 leukemia
# [20] = tested on: KM12 colon
# [21] = tested on: KM20L2 colon
# [22] = tested on: LOX IMVI melanoma
# [23] = tested on: M19-MEL melanoma
# [24] = tested on: MALME-3M melanoma
# [25] = tested on: NCI-H23 lung
# [26] = tested on: NCI-H460 lung
# [27] = tested on: OVCAR-3 ovarian
# [28] = tested on: OVCAR-4 ovarian
# [29] = tested on: OVCAR-5 ovarian
# [30] = tested on: OVCAR-8 ovarian
# [31] = tested on: RPMI-8226 leukemia
# [32] = tested on: RXF 393 renal
# [33] = tested on: SF-268 CNS
# [34] = tested on: SF-295 CNS
# [35] = tested on: SF-539 CNS
# [36] = tested on: SK-MEL-2 melanoma
# [37] = tested on: SK-MEL-28 melanoma
# [38] = tested on: SK-MEL-5 melanoma
# [39] = tested on: SN12C renal
# [40] = tested on: SNB-19 CNS
# [41] = tested on: SNB-75 CNS
# [42] = tested on: SNB-78 CNS
# [43] = tested on: SR leukemia
# [44] = tested on: SW-620 colon
# [45] = tested on: TK-10 renal
# [46] = tested on: U251 CNS
# [47] = tested on: UACC-257 melanoma
# [48] = tested on: UACC-62 melanoma
# [49] = tested on: XF 498 CNS
# [50] = tested on: DMS 114 small cell lung
# [51] = tested on: HCC-2998 colon
# [52] = tested on: LXFL 529 NSCLC
# [53] = tested on: M14 melanoma
# [54] = tested on: MOLT-4 leukemia
# [55] = tested on: NCI-H226 lung
# [56] = tested on: NCI-H522 lung
# [57] = tested on: SK-OV-3 ovarian
# [58] = tested on: UO-31 renal
structure (smiles),measurement,setting,value
COc1ccc(C(=O)Nc2ccccc2C#N)cc1,TGI,[1],> 100 µM
same,TGI,[2],> 100 µM
same,TGI,[3],> 100 µM
same,TGI,[4],> 100 µM
same,TGI,[5],> 100 µM
same,TGI,[6],> 100 µM
same,TGI,[7],> 100 µM
same,TGI,[8],> 100 µM
same,TGI,[9],> 100 µM
same,TGI,[10],> 100 µM
same,TGI,[11],> 100 µM
same,TGI,[12],> 100 µM
same,TGI,[13],> 100 µM
same,TGI,[14],> 100 µM
same,TGI,[15],> 100 µM
same,TGI,[16],> 100 µM
same,TGI,[17],> 100 µM
same,TGI,[18],> 100 µM
same,TGI,[19],> 100 µM
same,TGI,[20],> 100 µM
same,TGI,[21],> 100 µM
same,TGI,[22],> 100 µM
same,TGI,[23],> 100 µM
same,TGI,[24],> 100 µM
same,TGI,[25],> 100 µM
same,TGI,[26],> 100 µM
same,TGI,[27],> 100 µM
same,TGI,[28],> 100 µM
same,TGI,[29],> 100 µM
same,TGI,[30],> 100 µM
same,TGI,[31],> 100 µM
same,TGI,[32],> 100 µM
same,TGI,[33],> 100 µM
same,TGI,[34],> 100 µM
same,TGI,[35],> 100 µM
same,TGI,[36],> 100 µM
same,TGI,[37],> 100 µM
same,TGI,[38],> 100 µM
same,TGI,[39],> 100 µM
same,TGI,[40],> 100 µM
same,TGI,[41],> 100 µM
same,TGI,[42],> 100 µM
same,TGI,[43],> 100 µM
same,TGI,[44],> 100 µM
same,TGI,[45],> 100 µM
same,TGI,[46],> 100 µM
same,TGI,[47],> 100 µM
same,TGI,[48],> 100 µM
same,TGI,[49],> 100 µM
CC[n+]1c(/C=C/c2ccc(N(CCCl)CCCl)cc2)ccc2cc(Br)ccc21,TGI,[1],10.1 µM
same,TGI,[2],6900 µM
same,GI50,[3],1370 µM
same,GI50,[4],1060 µM
same,GI50,[5],1650 µM
same,GI50,[6],304 µM
same,TGI,[7],128 µM
same,TGI,[8],16.1 µM
same,TGI,[50],15.2 µM
same,GI50,[10],1060 µM
same,TGI,[51],3.13 µM
same,TGI,[11],482 µM
same,GI50,[12],2520 µM
same,GI50,[13],86.2 µM
same,TGI,[14],19.6 µM
same,GI50,[15],954 µM
same,GI50,[16],92.7 µM
same,GI50,[17],548 µM
same,TGI,[18],18.4 µM
same,GI50,[19],125 µM
same,TGI,[20],3.3 µM
same,TGI,[21],11.9 µM
same,TGI,[22],2.87 µM
same,TGI,[52],1.99 µM
same,TGI,[53],4.19 µM
same,GI50,[23],134 µM
same,GI50,[24],84 µM
same,GI50,[54],109 µM
same,TGI,[55],7.48 µM
same,GI50,[25],172 µM
same,TGI,[26],11.4 µM
same,TGI,[56],4.66 µM
same,TGI,[27],2.22 µM
same,TGI,[28],7.98 µM
same,GI50,[29],202 µM
same,TGI,[30],10.4 µM
same,GI50,[31],162 µM
same,GI50,[32],588 µM
same,GI50,[34],1150 µM
same,TGI,[35],4.29 µM
same,TGI,[36],1.28 µM
same,TGI,[37],2.52 µM
same,GI50,[38],135 µM
same,TGI,[57],9.09 µM
same,TGI,[39],10.6 µM
same,TGI,[40],2.57 µM
same,TGI,[41],0.936 µM
same,TGI,[42],15.4 µM
same,GI50,[43],132 µM
same,TGI,[44],14.7 µM
same,GI50,[45],652 µM
same,TGI,[46],4.11 µM
same,GI50,[47],95.8 µM
same,TGI,[48],7.55 µM
same,GI50,[58],1470 µM
same,TGI,[49],1.18 µM
O=c1[nH]cnc2c1nnn2C1C=C(CO)C(O)C1O (centres undefined),TGI,[1],> 100 µM
same,TGI,[2],> 100 µM
same,TGI,[3],> 100 µM
same,TGI,[4],> 100 µM
same,TGI,[5],> 100 µM
same,TGI,[6],> 100 µM
same,TGI,[7],> 100 µM
same,TGI,[8],> 100 µM
same,TGI,[50],> 100 µM
same,TGI,[9],60.1 µM
same,TGI,[10],> 100 µM
same,TGI,[51],> 100 µM
same,TGI,[11],> 100 µM
same,TGI,[12],> 100 µM
same,TGI,[14],> 100 µM
same,TGI,[15],> 100 µM
same,TGI,[16],> 100 µM
same,TGI,[17],> 100 µM
same,TGI,[18],> 100 µM
same,TGI,[19],> 100 µM
same,TGI,[20],> 100 µM
same,TGI,[21],> 100 µM
same,TGI,[22],81.5 µM
same,TGI,[52],> 100 µM
same,TGI,[53],> 100 µM
same,TGI,[23],> 100 µM
same,TGI,[54],> 100 µM
same,TGI,[55],> 100 µM
same,TGI,[25],> 100 µM
same,TGI,[26],> 100 µM
same,TGI,[27],> 100 µM
same,TGI,[28],> 100 µM
same,TGI,[29],> 100 µM
same,TGI,[30],> 100 µM
same,TGI,[31],> 100 µM
same,TGI,[32],> 100 µM
same,TGI,[33],> 100 µM
same,TGI,[34],> 100 µM
same,TGI,[35],> 100 µM
same,TGI,[36],> 100 µM
same,TGI,[37],> 100 µM
same,TGI,[38],> 100 µM
same,TGI,[57],> 100 µM
same,TGI,[39],> 100 µM
same,TGI,[40],> 100 µM
same,TGI,[41],> 100 µM
same,TGI,[42],> 100 µM
same,TGI,[43],> 100 µM
same,TGI,[45],> 100 µM
same,TGI,[46],> 100 µM
same,TGI,[47],> 100 µM
same,TGI,[48],> 100 µM
same,TGI,[58],> 100 µM
same,TGI,[49],> 100 µM
